Assay results published in patent US20110124614A1, “Methods And Compositions For The Treatment of Autoimmune Disorders” (priority 2008, published 2011).
Where “and” joins values, the source holds several entries; their conditions need not be identical. Equal entries are not always repeated. Marks after values point to notes of the source that are not given here.

Columns and labels:
[1] = test system: CNS infiltration and demyelination in GPR30KO EAE mice; assay: Spinal cord histology (H&E, LFB-PAS), GPR30KO EAE mice; assay type: in vivo, mouse; conditions: E2-treated GPR30-KO mice, FIG. 1B
Source text: Spinal cords were dissected out for histology. Intact spinal columns were removed and dissected after fixation in 4% paraformaldehyde, dehydrated and embedding in paraffin. To examine neuroinflammation, the sections were stained with hematoxylin and eosin (H&E). To examine demyelination, the sections were stained with Luxon fast blue plus periodic acid Schiff (LFB-PAS).

[2] = test system: EAE in GPR30KO female mice; assay: EAE clinical scoring, E2 pellets, GPR30KO mice (Example II); assay type: in vivo, mouse; conditions: E2 treated GPR30KO mice, 2.5 mg/60 day pellet
[3] = Serum E2 level by radioimmunoassay in E2-implanted mice; assay type: in vivo, mouse; conditions: mice with 2.5 mg/60 day release E2 pellets; RIA; FIG. 3
Protocol: Serum levels of E2 were determined by radioimmunoassay (RIA) after Sephadex LH-20 column chromatography (GE Healthcare Life Sciences, Piscataway, N.J.). Representative animals were bled by cardiac puncture, and the blood was allowed to clot at 4° C. overnight. The samples were centrifuged, and the sera were collected and stored at −80° C. until hormone analysis was performed. All samples were analyzed in a single assay for each hormone.

[4] = test system: EAE in heterozygous (GPR30^+/−) female mice; conditions: mouse, in vivo
[5] = test system: experimental autoimmune encephalomyelitis (EAE) in WT C57BL/6 female mice; assay: EAE clinical scoring, E2 pellets, WT mice (Example II); assay type: in vivo, mouse
uteri = assay: Uterine weight (estrogenic effect); design: species or system mouse; conditions: G-1 treatment in vivo, FIG. 2E
Source text: (§1) Treatment with G-1 in viva lacked the “estrogenic effects” of E2.

[6] = test system: cytokine secretion by splenocytes of WT immunized mice; assay: Cytokine secretion of mMog-35-55 stimulated splenocytes, Luminex, WT mice; assay type: in vivo, mouse; conditions: 48 h supernatants
Protocol: PD-1KO (Dr. […] One week after implantation experimental autoimmune encephalomyelitis (EAE) was induced. Splenocytes were harvested from […] cell proliferation and cytokine secretion in 48 h supernatants. (*P<0.05, or **P<0.01 compared to placebo). Lymph node and spleen cells were cultured at 4×10^6 cells/well in a 24 well flat-bottom culture plate in stimulation medium (RPMI 1640, 1% sodium pyruvate, 1% L-glutamine, 0.4% 2-β-ME, 10% FBS) with 25 μg/ml mMog-35-55 peptide for 48H. Supernatants were then harvested and stored at -80° C. until tested for cytokines. Culture supernatants were assessed for cytokine levels using a Luminex Bio-Plex mouse cytokine assay kit (BioRad, Hercules, Calif.) following the manufacturer's instructions. The following cytokines were determined in a single assay in three separate experiments: IL-1βIFN-γ, TNF-α, IL-2, IL-4, IL-5. IL-6, IL-12, IL-13, and IL-17. […] This cytokine profile was drastically altered in G-1 treated PD-1Ko mice. The decrease of Il-17 and increase of Il-6, Il-10 and IFN-γ production were abolished, whereas the reduction in IL-2 and Il-4 remained. Thus PD-1 was required for […] downregulation of IL-17 but not Il-2 and Il-4, and upregulation of IL-6, Il10 and IFN-γ.

[7] = test system: liver, eyes, heart, mammary gland, brain, spleen, kidney, muscle, lung; assay: H&E organ histology in G-1 treated naive mice; assay type: in vivo, mouse; conditions: 1.8 mg G-1 treated naive mice
Source text: as §1

[8] = WT, 2.5 mg/60 day release E2 pellet, 25 days

C[C@]12CC[C@@H]3c4ccc(O)cc4CC[C@H]3[C@@H]1CC[C@@H]2O [E2, 17β estradiol]
cellular infiltration and demyelination in CNS [1]: visibly present, but at a reduced level
clinical EAE (in words) [2]: delayed onset and were only partially protected from EAE
serum E2 levels [3]: 1.5 to 2 ng/mL
Daily [4]: 2.6 ± 0.8
Incidence [4]: 4/7 and 5/10
Mortality [4]: 0/7 and 0/10
Onset [4]: 20.0 ± 1.0
clinical EAE (in words) [4]: delayed onset and were only partially protected from EAE
clinical EAE (in words) ([5]; E2-treated WT mice, 2.5 mg/60 day pellet): no sign of the disease
Incidence ([5]; WT, 2.5 mg/60 day release E2 pellet one week before immunization, concluded 25 days after immunization): 0/10
CDI [5, 8]: 0**
Daily [5, 8]: 0**
Mortality [5, 8]: 0/10
Peak ([5]; WT, 2.5 mg/60 day release E2 pellet, 25 days, EAE score scale 0-6): 0**

CC(=O)c1ccc2c(c1)C1C=CCC1C(c1cc3c(cc1Br)OCO3)N2 (centres unmarked) [G-1]
weight of uteri (uteri): did not significantly change
secretion of IL-17 ([6]; G-1 1.8 mg/40 day pellet, WT, 25 μg/ml mMog-35-55): significantly reduced
production of IFN-γ ([6]; G-1 treated WT): increased
production of IL-1β ([6]; G-1 treated WT): did not significantly change
production of IL-5 ([6]; G-1 treated WT): did not significantly change
production of Il-4 ([6]; G-1 treated WT): suppressed
production of Il-6 ([6]; G-1 treated WT): increased
production of Il-12 ([6]; G-1 treated WT): did not significantly change
production of TNF-α ([6]; G-1 treated WT): did not significantly change
secretion of IL-2 ([6]; G-1 treated WT): significantly reduced
secretion of IL-10 ([6]; G-1 treated WT): increased
abnormalities by H&E staining in liver, eyes, heart, mammary gland, brain, spleen, kidney, muscle or lung [7]: no abnormalities
